Test results taken from the supplement of paper PMC10307832.

What was measured:
Test in all cases: relative viability (nuclei count vs DMSO), 5 days (fraction); higher = more cells survive
[1] = compound: CC1=CC(=C(N1C2=CC=C(C=C2)Cl)C)C(=O)CN3CCCCC3 [IU1-47] + CS(=O)(=O)CCNCc1ccc(-c2ccc3ncnc(Nc4ccc(OCc5cccc(F)c5)c(Cl)c4)c3c2)o1 [Lapatinib] (partner 2 µM)
Outline: (§1)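 Five library-drug doses in √10 steps were combined with a fixed anchor-drug dose, or a single drug was given alone, by pin tool to lung cancer cell lines in 1536-well plates the day after seeding. Nuclei were stained and counted after 5 days. Relative viability is the nuclei count in treated wells over that in vehicle wells, taken as the median of duplicate plates.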

[2] = compound: Cc1nc(C(=O)NCC(=O)O)c(O)c2ccc(Oc3ccccc3)cc12 [FG-4592] + COc1cccc2cc(-c3nc([C@H]4CC[C@H](C(=O)O)CC4)n4ncnc(N)c34)[nH]c12 [OSI-027] (partner 0.5 µM)
Outline: as §1

[3] = compound: Cc1nc(C(=O)NCC(=O)O)c(O)c2ccc(Oc3ccccc3)cc12 [FG-4592] + NC(=O)Nc1cc(-c2cccc(F)c2)sc1C(=O)N[C@H]1CCCNC1 [AZD7762] (partner 0.2 µM)
Outline: as §1

[4] = compound: CC1=CC(=C(N1C2=CC=C(C=C2)Cl)C)C(=O)CN3CCCCC3 [IU1-47] + COc1cc2c(Oc3ccc(NC(=O)C4(C(=O)Nc5ccc(F)cc5)CC4)cc3F)ccnc2cc1OCCCN1CCOCC1 [Foretinib] (partner 0.25 µM)
Outline: as §1

| Cell Line | relative viability ([1]; first compound 0.08 µM) | relative viability ([1]; first compound 0.253 µM) | relative viability ([1]; first compound 0.8 µM) | relative viability ([1]; first compound 8 µM) | relative viability ([2]; first compound 0.08 µM) | relative viability ([2]; first compound 0.253 µM) | relative viability ([2]; first compound 0.8 µM) | relative viability ([2]; first compound 2.53 µM) | relative viability ([2]; first compound 8 µM) | relative viability ([3]; first compound 0.08 µM) | relative viability ([3]; first compound 0.253 µM) | relative viability ([3]; first compound 0.8 µM) | relative viability ([3]; first compound 2.53 µM) | relative viability ([3]; first compound 8 µM) | relative viability ([4]; first compound 0.08 µM) | relative viability ([4]; first compound 0.253 µM) | relative viability ([4]; first compound 0.8 µM) | relative viability ([4]; first compound 2.53 µM) | relative viability ([4]; first compound 8 µM) | relative viability ([1]; first compound 2.53 µM) |
| --- | --- | --- | --- | --- | --- | --- | --- | --- | --- | --- | --- | --- | --- | --- | --- | --- | --- | --- | --- | --- |
| HCC-366 | 1.04 | 0.938 | 1.26 | 1.15 | 0.455 | 0.934 | 0.784 | 0.484 | 0.703 | 0.243 | 0.248 | 0.28 | 0.364 | 0.269 | 0.872 | 0.92 | 1 | 0.966 | 1.01 |  |
| HCC-827 | 0.198 | 0.215 | 0.197 | 0.207 | 0.677 | 0.727 | 0.8 | 0.669 | 0.593 | 0.23 | 0.173 | 0.326 | 0.184 | 0.22 | 1.15 | 1.12 | 0.998 | 1.02 | 1.01 | 0.19 |
| IA-LM |  | 1.08 | 0.832 | 0.664 |  |  |  |  |  |  |  |  |  |  | 1.02 | 1.12 | 0.936 | 1.17 | 1 | 0.997 |
| LCLC-103H |  |  |  |  | 0.445 | 0.45 | 0.455 | 0.421 | 0.373 | 0.609 | 0.741 | 0.635 | 0.785 | 0.686 | 0.786 | 0.864 | 0.846 | 0.73 | 0.865 |  |
| NCI-H441 |  |  |  |  | 0.589 | 0.537 | 0.621 | 0.465 | 0.563 | 1.26 | 0.852 | 1.46 | 1 | 0.978 | 0.873 | 1.15 | 0.986 | 1.13 | 0.864 |  |
| NCI-H520 | 0.774 | 0.858 | 1 | 0.59 | 0.234 | 0.285 | 0.286 | 0.257 | 0.205 |  |  |  |  |  | 0.785 | 0.866 | 0.698 | 1.15 | 0.651 | 0.879 |
| NCI-H522 |  |  |  |  | 0.739 | 0.738 | 0.727 | 0.594 | 0.574 | 0.78 | 0.717 |  | 0.666 | 0.819 |  |  |  |  |  |  |
| NCI-H661 | 0.562 | 0.546 | 0.51 | 0.552 | 0.712 | 0.688 | 0.688 | 0.763 | 0.668 |  |  |  |  |  | 1.14 | 1.16 | 1.07 | 0.93 | 1.2 | 0.338 |
| NCI-H1299 | 0.962 | 0.982 | 0.975 | 0.934 |  |  |  |  |  |  |  |  |  |  | 1.1 | 1.11 | 1.09 | 1.18 | 1.01 | 1.02 |
| NCI-H1563 | 0.935 | 0.914 | 1.25 | 0.73 | 0.78 | 0.785 | 0.718 | 0.701 | 0.606 |  |  |  |  |  | 0.855 | 0.988 | 0.967 | 0.886 | 0.864 | 0.793 |
| NCI-H1623 |  |  |  |  | 0.447 | 0.447 | 0.468 | 0.416 | 0.419 |  |  |  |  |  | 1.05 | 0.903 | 0.892 | 0.841 | 0.833 |  |
| NCI-H1648 |  |  |  |  | 0.275 | 0.285 | 0.302 | 0.258 | 0.28 | 0.622 | 0.662 |  | 0.714 | 0.921 |  |  |  |  |  |  |
